# Patent US20190263804A1, “AZABENZIMIDAZOLE DERIVATIVES AS PI3K BETA INHIBITORS” (Janssen Pharmaceutica NV, priority 2016, published 2019)
# pIC50, pKd: −log10 of the molar value.
# Key:
# [1] = target: T1, PIK3Cδ_h (Homo sapiens, UniProt O00329); experiment: KINOMEscan enzyme binding assay, PIK3Cδ; settings: KINOMEscan (DiscoveRx)
# T1 construct: purchased DiscoveRx Corporation, San Diego (contract assay service)
# T1 sequence (O00329 1-1044): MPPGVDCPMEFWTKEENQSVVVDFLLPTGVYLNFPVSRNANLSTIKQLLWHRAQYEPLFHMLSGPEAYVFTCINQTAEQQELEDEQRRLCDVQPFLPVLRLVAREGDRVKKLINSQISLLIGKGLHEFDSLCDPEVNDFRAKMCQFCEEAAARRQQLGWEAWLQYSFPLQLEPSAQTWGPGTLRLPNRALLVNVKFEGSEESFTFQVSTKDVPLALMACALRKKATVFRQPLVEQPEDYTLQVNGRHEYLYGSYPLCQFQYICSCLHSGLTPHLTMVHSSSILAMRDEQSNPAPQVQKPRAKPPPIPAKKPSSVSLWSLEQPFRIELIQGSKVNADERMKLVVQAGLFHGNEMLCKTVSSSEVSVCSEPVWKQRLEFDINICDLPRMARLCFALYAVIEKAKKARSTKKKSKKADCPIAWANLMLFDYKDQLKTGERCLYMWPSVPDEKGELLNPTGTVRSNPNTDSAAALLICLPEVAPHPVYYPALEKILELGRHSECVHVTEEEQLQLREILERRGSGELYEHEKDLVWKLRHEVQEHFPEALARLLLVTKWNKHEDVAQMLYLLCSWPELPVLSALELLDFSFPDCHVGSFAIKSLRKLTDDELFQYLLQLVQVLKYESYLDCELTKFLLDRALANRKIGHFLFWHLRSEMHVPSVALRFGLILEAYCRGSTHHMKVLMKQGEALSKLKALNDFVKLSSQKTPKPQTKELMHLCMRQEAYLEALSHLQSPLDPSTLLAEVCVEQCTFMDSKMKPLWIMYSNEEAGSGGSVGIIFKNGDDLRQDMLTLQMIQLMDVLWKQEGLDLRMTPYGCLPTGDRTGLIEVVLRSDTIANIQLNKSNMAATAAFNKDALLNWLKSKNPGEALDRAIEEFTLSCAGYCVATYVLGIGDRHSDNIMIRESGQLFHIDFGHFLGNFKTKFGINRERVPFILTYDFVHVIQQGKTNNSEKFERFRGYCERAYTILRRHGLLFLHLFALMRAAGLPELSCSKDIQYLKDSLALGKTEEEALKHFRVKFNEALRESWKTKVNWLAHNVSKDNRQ
# Method: (§1) Enzyme Binding Assays (KINOMEscan®)
# (§2) Kinase enzyme binding affinities of compounds disclosed herein were determined using the KINOMEscan technology performed by DiscoveRx Corporation, San Diego, Calif., USA (www.kinomescan.com). Table A reports the obtained Kd values (nM), with the Kd being the inhibitor binding constant (‘n.d.’ means not determined): […]
# [2] = target: T2, MTOR_h (Homo sapiens, UniProt P42345); experiment: KINOMEscan enzyme binding assay, MTOR; settings: KINOMEscan (DiscoveRx)
# T2 construct: purchased DiscoveRx Corporation, San Diego (contract assay service)
# Method: as §1, §2
# [3] = target: T3, PIK3Cα_h (Homo sapiens, UniProt P42336); experiment: KINOMEscan enzyme binding assay, PIK3Cα; settings: KINOMEscan (DiscoveRx)
# T3 construct: purchased DiscoveRx Corporation, San Diego (contract assay service)
# Method: as §1, §2
# [4] = tested on: phosphorylation of Akt (Thr308) in PC-3 cells; experiment: Cellular assay: phospho-Akt (Thr308) MSD ELISA in PC-3 cells; format: cell-based; settings: Homo sapiens, 1 h, 60 min compound incubation, read-out: IC50 pAkt_Thr308
# Method: (§3) Cellular activity of PI3K(3 inhibitors was determined by quantifying the phosphorylation of Akt in PC-3 cells. Akt phosphorylated at Ser473 and Thr308 were measured using an enzyme-linked immunosorbent assay (ELISA; Meso Scale Discovery (MSD), Gaithersburg, Md.) and specific primary antibodies from MSD.
# (§4) On day 1, PC3 cells (ATCC # […]) were seeded into PerkinElmer MW96 plates at 25.000 cells per well, in 75 μl complete culture medium (DMEM high glucose, AQmedia™, D0819, Sigma-Aldrich) containing 10% heat inactivated FCS and incubated at 37° C., 5% CO2 during 24 hours. On day 2, compound or DMSO (0.3%) was added and cells were further incubated for 60 min at 37° C., 5% CO2 in a total volume of 100 μl of medium.
# (§5) The phosphoprotein assay was executed according to vendor instructions in the Phospho-Akt (Ser473) Assay Whole Cell Lysate Kit (MSD # K15100D-3) and the Phospho-Akt (Thr308) Assay Whole Cell Lysate Kit (MSD # K151DYD-3) using the lysis, blocking and wash buffer provided.
# (§6) Briefly, at the end of the cell treatment period, media were removed by aspiration and adherent cells were lysed in 50 μl ice-cold lysis buffer. MSD plates are supplied pre-coated with capture antibodies for Phospho-Akt (Ser473 and Thr308). After blocking, lysates from tissue culture plates were added and plates were washed. Then, a solution containing the detection antibody (anti-total Akt conjugated with an electrochemiluminescent compound-MSD Sulfo-tag label) was added. The signals were detected using an MSD SECTOR Imager 6000 and are proportional to the phospho-Akt titres.
# (§7) Data were processed. The percentage of inhibition was plotted against the log concentration of test compounds, and the sigmoidal log concentration-effect curve of best fit was calculated by nonlinear regression analysis. From these concentration-response curves, the IC50 values were calculated. Five concentrations were used for curve fitting.
# [5] = target: T4, PIK3Cγ_h (Homo sapiens, UniProt P48736); experiment: KINOMEscan enzyme binding assay, PIK3Cγ; settings: KINOMEscan (DiscoveRx)
# T4 construct: purchased DiscoveRx Corporation, San Diego (contract assay service)
# Method: as §1, §2
# [6] = target: T5, PIK3Cβ_h (Homo sapiens, UniProt P42338); experiment: KINOMEscan enzyme binding assay, PIK3Cβ; settings: KINOMEscan (DiscoveRx)
# T5 construct: purchased DiscoveRx Corporation, San Diego (contract assay service)
# Method: as §1, §2
# [7] = tested on: phosphorylation of Akt (Ser473) in PC-3 cells; experiment: Cellular assay: phospho-Akt (Ser473) MSD ELISA in PC-3 cells; format: cell-based; settings: Homo sapiens, 1 h, 60 min compound incubation, read-out: IC50 pAkt_S473
# Method: as §3, §4, §5, §6, §7
# T3 sequence (P42336 whole entry): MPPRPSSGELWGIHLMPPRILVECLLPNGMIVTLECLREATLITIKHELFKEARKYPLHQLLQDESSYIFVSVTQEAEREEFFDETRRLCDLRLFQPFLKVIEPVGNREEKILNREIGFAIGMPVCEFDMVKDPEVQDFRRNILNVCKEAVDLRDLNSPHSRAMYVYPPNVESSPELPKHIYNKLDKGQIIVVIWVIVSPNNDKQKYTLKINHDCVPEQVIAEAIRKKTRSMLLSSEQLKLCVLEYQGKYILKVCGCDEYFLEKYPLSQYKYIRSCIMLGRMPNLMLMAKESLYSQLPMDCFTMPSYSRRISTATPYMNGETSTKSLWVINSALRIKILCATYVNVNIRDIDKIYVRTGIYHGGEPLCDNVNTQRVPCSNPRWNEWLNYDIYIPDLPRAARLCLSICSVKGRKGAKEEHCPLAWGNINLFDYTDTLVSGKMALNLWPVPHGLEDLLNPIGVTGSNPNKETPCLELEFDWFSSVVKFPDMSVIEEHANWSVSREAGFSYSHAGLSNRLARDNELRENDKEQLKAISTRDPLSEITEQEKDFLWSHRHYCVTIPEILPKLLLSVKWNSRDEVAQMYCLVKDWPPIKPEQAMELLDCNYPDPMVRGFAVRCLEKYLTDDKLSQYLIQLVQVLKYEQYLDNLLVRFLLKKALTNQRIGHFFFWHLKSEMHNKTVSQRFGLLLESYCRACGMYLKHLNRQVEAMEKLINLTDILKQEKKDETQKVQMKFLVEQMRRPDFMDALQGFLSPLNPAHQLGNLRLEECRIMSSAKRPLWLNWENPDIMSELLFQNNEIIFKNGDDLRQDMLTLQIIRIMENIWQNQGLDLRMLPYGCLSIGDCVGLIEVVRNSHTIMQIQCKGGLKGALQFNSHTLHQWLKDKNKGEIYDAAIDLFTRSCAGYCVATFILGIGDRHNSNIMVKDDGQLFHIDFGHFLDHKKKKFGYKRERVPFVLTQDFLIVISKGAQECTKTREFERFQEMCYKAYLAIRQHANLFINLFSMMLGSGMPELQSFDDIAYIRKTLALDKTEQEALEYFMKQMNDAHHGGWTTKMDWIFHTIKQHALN
# T5 sequence (P42338 whole entry): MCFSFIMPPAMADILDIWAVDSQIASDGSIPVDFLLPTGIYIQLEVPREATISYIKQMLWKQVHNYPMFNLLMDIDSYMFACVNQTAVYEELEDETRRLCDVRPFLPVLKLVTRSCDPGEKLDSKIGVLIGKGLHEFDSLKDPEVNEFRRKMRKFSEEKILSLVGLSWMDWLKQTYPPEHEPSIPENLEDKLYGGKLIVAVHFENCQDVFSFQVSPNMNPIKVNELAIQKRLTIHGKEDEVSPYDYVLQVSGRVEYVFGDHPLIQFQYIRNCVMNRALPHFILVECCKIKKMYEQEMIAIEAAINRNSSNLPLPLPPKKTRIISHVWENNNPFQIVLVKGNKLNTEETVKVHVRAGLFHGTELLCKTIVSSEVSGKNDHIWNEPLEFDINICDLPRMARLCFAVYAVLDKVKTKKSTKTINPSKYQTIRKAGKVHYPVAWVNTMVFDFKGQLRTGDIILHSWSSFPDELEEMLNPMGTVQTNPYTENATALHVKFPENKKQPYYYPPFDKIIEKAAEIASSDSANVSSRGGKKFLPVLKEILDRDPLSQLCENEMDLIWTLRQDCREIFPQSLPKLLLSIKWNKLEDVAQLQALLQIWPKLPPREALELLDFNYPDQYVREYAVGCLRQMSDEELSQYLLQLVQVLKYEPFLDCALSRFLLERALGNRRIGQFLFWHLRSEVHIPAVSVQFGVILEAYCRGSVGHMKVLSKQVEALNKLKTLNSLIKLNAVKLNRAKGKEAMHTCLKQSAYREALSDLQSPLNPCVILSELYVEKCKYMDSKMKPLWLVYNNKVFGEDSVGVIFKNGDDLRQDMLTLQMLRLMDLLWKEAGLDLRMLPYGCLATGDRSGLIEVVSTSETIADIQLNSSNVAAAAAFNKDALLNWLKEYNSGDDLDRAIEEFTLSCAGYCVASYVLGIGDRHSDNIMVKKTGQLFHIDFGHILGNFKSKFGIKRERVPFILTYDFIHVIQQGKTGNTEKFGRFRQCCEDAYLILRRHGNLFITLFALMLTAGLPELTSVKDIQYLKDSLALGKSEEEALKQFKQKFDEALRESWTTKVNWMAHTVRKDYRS
# T4 sequence (P48736 whole entry): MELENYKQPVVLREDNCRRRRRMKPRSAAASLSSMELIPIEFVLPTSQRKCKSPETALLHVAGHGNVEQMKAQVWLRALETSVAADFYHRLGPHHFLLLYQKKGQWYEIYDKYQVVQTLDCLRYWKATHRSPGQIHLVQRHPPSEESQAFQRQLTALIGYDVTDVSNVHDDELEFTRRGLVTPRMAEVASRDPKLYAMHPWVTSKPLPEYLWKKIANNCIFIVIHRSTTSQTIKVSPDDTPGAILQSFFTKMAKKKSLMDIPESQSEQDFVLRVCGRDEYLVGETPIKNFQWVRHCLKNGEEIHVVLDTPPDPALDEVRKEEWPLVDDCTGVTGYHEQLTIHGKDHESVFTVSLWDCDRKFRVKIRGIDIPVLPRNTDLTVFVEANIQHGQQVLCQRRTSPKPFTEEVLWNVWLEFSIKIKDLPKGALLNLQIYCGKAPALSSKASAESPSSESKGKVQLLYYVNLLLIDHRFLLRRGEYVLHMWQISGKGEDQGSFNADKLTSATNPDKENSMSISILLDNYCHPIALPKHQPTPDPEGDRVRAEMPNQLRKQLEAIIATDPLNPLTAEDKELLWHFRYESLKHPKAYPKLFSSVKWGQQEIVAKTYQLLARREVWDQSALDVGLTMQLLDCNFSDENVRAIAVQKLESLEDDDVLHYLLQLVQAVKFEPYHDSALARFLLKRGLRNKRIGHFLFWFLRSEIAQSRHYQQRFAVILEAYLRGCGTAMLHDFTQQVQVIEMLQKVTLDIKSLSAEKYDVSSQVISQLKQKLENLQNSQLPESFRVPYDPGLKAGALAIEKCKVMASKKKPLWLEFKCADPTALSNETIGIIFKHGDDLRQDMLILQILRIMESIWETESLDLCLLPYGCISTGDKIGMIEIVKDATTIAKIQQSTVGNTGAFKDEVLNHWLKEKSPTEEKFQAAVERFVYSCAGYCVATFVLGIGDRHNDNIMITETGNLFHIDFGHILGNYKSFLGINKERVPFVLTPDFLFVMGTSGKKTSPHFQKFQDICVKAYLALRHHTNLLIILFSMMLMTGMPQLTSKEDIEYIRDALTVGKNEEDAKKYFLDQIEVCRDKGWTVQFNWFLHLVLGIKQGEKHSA
SMILES,pKd [1],pKd [2],pKd [3],pIC50 [4],pKd [5],pKd [6],pIC50 [7]
Cc1c(Cn2c(CO)nc3cnc(N4CCOCC4)cc32)cccc1C(F)(F)F [Compound 6],6.10,≤ 4.52,5.55,7.40,4.74,9.00,7.30
Cc1c(Cn2c(C)nc3cnc(C4=CCOCC4)cc32)cccc1C(F)(F)F [Compound 13],5.89,< 4.52,5.23,7.10,4.77,8.52,6.77
Cc1c(Cn2c(CN3CCS(=O)(=O)CC3)nc3cnc(N4CCOCC4)cc32)cccc1C(F)(F)F [Compound 8],5.59,< 4.52,4.96,6.54,< 4.52,7.96,–
Cc1nc2cnc(N3CCOCC3)cc2n1Cc1cccc2c1CNCC2 [Compound 9],5.29,< 4.52,< 4.52,~6.34,< 4.52,7.10,~6.32
Cc1c(Cn2c(CN3CC(O)C3)nc3cnc(N4CCOCC4)cc32)cccc1C(F)(F)F [Compound 7],5.96,5.34,5.66,6.41,< 4.52,8.52,6.32
Cc1c(Cn2c(CN3CC4(CC(O)C4)C3)nc3cnc(N4CCOCC4)cc32)cccc1C(F)(F)F [Compound 3],6.70,< 4.52,5.80,7.40,< 4.52,9.00,7.15
Cc1c(Cl)cccc1Cn1c(CN2CCS(=O)(=O)CC2)nc2cnc(N3CCOCC3)cc21 [Compound 5],5.82,< 4.52,5.59,6.89,< 4.52,8.40,~7.00
Cc1nc2cnc(N3CCOCC3)cc2n1Cc1cccc2c1CN(CCO)CC2 [Compound 11],5.89,< 4.52,5.06,< 6.29,4.49,7.57,< 6.29
Cc1nc2cnc(N3CCOCC3)cc2n1Cc1cccc2c1CN(C)CC2 [Compound 10],5.38,< 4.52,4.57,< 6.29,< 4.52,7.00,< 6.29

# Continued, values first:
pKd [1],pKd [2],pKd [3],pIC50 [4],pKd [5],pKd [6],pIC50 [7],SMILES
6.22,≤ 4.52,5.68,7.52,5.02,8.70,7.40,Cc1c(Cl)cccc1Cn1c(C)nc2cnc(N3CCOCC3)cc21 [Compound 1]
5.37,< 4.52,4.77,6.82,< 4.52,8.05,~6.85,Cc1c(Cn2c(C)nc3c(N)nc(C4=CCOCC4)cc32)cccc1C(F)(F)F [Compound 4]
5.20,< 4.52,4.74,7.05,< 4.52,6.40,6.92,Cc1c(Cn2c(C)nc3c(N)nc(N4CCOCC4)cc32)cccc1C(F)(F)F [Compound 15]
6.15,< 4.52,4.88,6.96,< 4.52,8.52,6.51,Cc1cccc(Cn2c(C)nc3c(N)nc(C4=CCOCC4)cc32)c1C [Compound 12]
5.25,< 4.52,< 4.52,6.74,< 4.52,6.88,6.39,Cc1c(F)cccc1Cn1c(C)nc2c(N)nc(N3CCOCC3)cc21 [Compound 16]
5.82,< 4.52,5.08,6.72,< 4.52,7.72,~6.64,Cc1cccc(Cn2c(C)nc3c(N)nc(N4CCOCC4)cc32)c1C [Compound 17]
5.48,< 4.52,< 4.52,6.66,4.66,7.96,6.49,Cc1c(F)cccc1Cn1c(C)nc2c(N)nc(C3=CCOCC3)cc21 [Compound 14]
5.82,< 4.52,5.43,6.37,4.65,8.70,6.74,Cc1c(Cn2c(C)nc3cnc(N4CCOCC4)cc32)cccc1C(F)(F)F [Compound 2]
